Source: patent US6043217A, “Amide derivative of amythiamicin” (Zaidan Hojin Biseibutsu Kagaku Kenyu Kai, priority 1996, dated 2000)

What was measured:
Type in all cases: cell-based
[1] = system: Staphylococcus aureus FDA 209P; experiment: MIC, standard serial dilution method; conditions: Muller-Hinton agar medium, 37° C.
[2] = system: Staphylococcus aureus Smith; experiment: MIC, standard serial dilution method; conditions: Muller-Hinton agar medium, 37° C.
[3] = system: Staphylococcus aureus MS 9610; experiment: MIC, standard serial dilution method; conditions: Muller-Hinton agar medium, 37° C.
[4] = system: Staphylococcus aureus No. 5 (MRSA); experiment: MIC, standard serial dilution method; conditions: Muller-Hinton agar medium, 37° C.
[5] = system: Staphylococcus aureus No. 17 (MRSA); experiment: MIC, standard serial dilution method; conditions: Muller-Hinton agar medium, 37° C.
[6] = system: Staphylococcus aureus MS 16526; experiment: MIC, standard serial dilution method; conditions: Muller-Hinton agar medium, 37° C.
[7] = system: Staphylococcus aureus TY-0428; experiment: MIC, standard serial dilution method; conditions: Muller-Hinton agar medium, 37° C.
[8] = system: Micrococcus luteus FDA 16; experiment: MIC, standard serial dilution method; conditions: Muller-Hinton agar medium, 37° C.
[9] = system: Micrococcus luteus IFO 3333; experiment: MIC, standard serial dilution method; conditions: Muller-Hinton agar medium, 37° C.
[10] = system: Micrococcus luteus PIC 1001; experiment: MIC, standard serial dilution method; conditions: Muller-Hinton agar medium, 37° C.
[11] = system: Bacillus anthracis; conditions: Muller-Hinton agar medium, 37° C.
[12] = system: Bacillus subtilis NRRL B-558; experiment: MIC, standard serial dilution method; conditions: Muller-Hinton agar medium, 37° C.
[13] = system: Bacillus subtilis PCI 219; experiment: MIC, standard serial dilution method; conditions: Muller-Hinton agar medium, 37° C.
[14] = system: Bacillus cereus ATCC 10702; experiment: MIC, standard serial dilution method; conditions: Muller-Hinton agar medium, 37° C.
[15] = system: Corynebacterium bovis 1810; experiment: MIC, standard serial dilution method; conditions: Muller-Hinton agar medium, 37° C.
[16] = system: Escherichia coli NIHJ; experiment: MIC, standard serial dilution method; conditions: Muller-Hinton agar medium, 37° C.
[17] = system: Escherichia coli K-12; experiment: MIC, standard serial dilution method; conditions: Muller-Hinton agar medium, 37° C.
[18] = system: Escherichia coli BEM 11; experiment: MIC, standard serial dilution method; conditions: Muller-Hinton agar medium, 37° C.
[19] = system: Escherichia coli BEM 1121; experiment: MIC, standard serial dilution method; conditions: Muller-Hinton agar medium, 37° C.
[20] = system: Escherichia coli BE 1186; experiment: MIC, standard serial dilution method; conditions: Muller-Hinton agar medium, 37° C.
[21] = system: Shigella dysenteria JS 11910; experiment: MIC, standard serial dilution method; conditions: Muller-Hinton agar medium, 37° C.
[22] = system: Escherichia coli K-12 ML 1692; experiment: MIC, standard serial dilution method; conditions: Muller-Hinton agar medium, 37° C.
Experimental: (§1) The antibacterial activities of the amythiamicin amide derivative of the general formula (I) according to this invention are now concretely described. Compounds No. 1 to No. 11 according to this invention, which were respectively prepared in Examples 1 to 11 hereinafter given, were tested as the test compounds for their minimum inhibitory concentrations (MIC.) (μg/ml) against growth of a variety of test microorganisms by a standard serial dilution method. In the tests, the incubation medium used was Muller-Hinton agar medium and the incubation temperature was 37° C. The test results are shown as antibacterial spectra in the following Tables 2 and 3.

[23] = system: Shigella clexnerl JS 11749; experiment: MIC, standard serial dilution method; conditions: Muller-Hinton agar medium, 37° C.
Experimental: as §1

[24] = system: Shigella sonnei JS 11746; experiment: MIC, standard serial dilution method; conditions: Muller-Hinton agar medium, 37° C.
Experimental: as §1

[25] = system: Salmonella typhi T-63; experiment: MIC, standard serial dilution method; conditions: Muller-Hinton agar medium, 37° C.
[26] = system: Salmonella enteritidis 1891; experiment: MIC, standard serial dilution method; conditions: Muller-Hinton agar medium, 37° C.
[27] = system: Proteus vulgaris OX 19; experiment: MIC, standard serial dilution method; conditions: Muller-Hinton agar medium, 37° C.
[28] = system: Proteus mirabilis IFM OM-9; experiment: MIC, standard serial dilution method; conditions: Muller-Hinton agar medium, 37° C.
[29] = system: Providencia rettgeri GN 311; experiment: MIC, standard serial dilution method; conditions: Muller-Hinton agar medium, 37° C.
[30] = system: Providencia rettgeri GN 466; experiment: MIC, standard serial dilution method; conditions: Muller-Hinton agar medium, 37° C.
[31] = system: Serratia marcescens; experiment: MIC, standard serial dilution method; conditions: Muller-Hinton agar medium, 37° C.
[32] = system: Pseudomonas aeruginosa A3; experiment: MIC, standard serial dilution method; conditions: Muller-Hinton agar medium, 37° C.
[33] = system: Pseudomonas aeruginosa GN315; experiment: MIC, standard serial dilution method; conditions: Muller-Hinton agar medium, 37° C.
[34] = system: Klebsiella pneumonia PCI 602; experiment: MIC, standard serial dilution method; conditions: Klebsiella pneumonia PCI 602 (Table 2); Muller-Hinton agar medium, 37° C.
[35] = system: Mycobacterium smegmatis ATCC 607; experiment: MIC, standard serial dilution method; conditions: Muller-Hinton agar medium, 37° C.
[36] = system: Candida albicans 3147; experiment: MIC, standard serial dilution method; conditions: Muller-Hinton agar medium, 37° C.

| Compound | Minimum growth inhibitory concentrations (MIC.) [1] [µg/mL] | Minimum growth inhibitory concentrations (MIC.) [2] [µg/mL] | Minimum growth inhibitory concentrations (MIC.) [3] [µg/mL] | Minimum growth inhibitory concentrations (MIC.) [4] [µg/mL] | Minimum growth inhibitory concentrations (MIC.) [5] [µg/mL] | Minimum growth inhibitory concentrations (MIC.) [6] [µg/mL] | Minimum growth inhibitory concentrations (MIC.) [7] [µg/mL] | Minimum growth inhibitory concentrations (MIC.) [8] [µg/mL] | Minimum growth inhibitory concentrations (MIC.) [9] [µg/mL] | Minimum growth inhibitory concentrations (MIC.) [10] [µg/mL] | Minimum growth inhibitory concentrations (MIC.) [11] [µg/mL] | Minimum growth inhibitory concentrations (MIC.) [12] [µg/mL] | Minimum growth inhibitory concentrations (MIC.) [13] [µg/mL] | Minimum growth inhibitory concentrations (MIC.) [14] [µg/mL] | Minimum growth inhibitory concentrations (MIC.) [15] [µg/mL] | Minimum growth inhibitory concentrations (MIC.) [16] [µg/mL] | Minimum growth inhibitory concentrations (MIC.) [17] [µg/mL] | Minimum growth inhibitory concentrations (MIC.) [18] [µg/mL] | Minimum growth inhibitory concentrations (MIC.) [19] [µg/mL] | Minimum growth inhibitory concentrations (MIC.) [20] [µg/mL] | further results |
| --- | --- | --- | --- | --- | --- | --- | --- | --- | --- | --- | --- | --- | --- | --- | --- | --- | --- | --- | --- | --- | --- |
| CNC(=O)CC1NC(=O)c2csc(n2)-c2ccc(-c3nc(C(=O)NCCCN(C)CCCN)cs3)nc2-c2csc(n2)-c2csc(n2)C(C(C)C)NC(=O)CNC(=O)c2csc(n2)C(C(C)C)NC(=O)c2nc1sc2C (stereo not drawn) [Compound No. 4] | 12.5 | 12.5 | 50 | > 100 | > 100 | > 100 | > 100 | > 100 | > 100 | 3.12 | 3.12 | > 100 | > 100 | 6.25 | > 100 | > 100 | > 100 | > 100 | > 100 | > 100 | Minimum growth inhibitory concentrations (MIC.) [21]: > 100 µg/mL; Minimum growth inhibitory concentrations (MIC.) [22]: > 100 µg/mL; Minimum growth inhibitory concentrations (MIC.) [23]: > 100 µg/mL; Minimum growth inhibitory concentrations (MIC.) [24]: > 100 µg/mL; Minimum growth inhibitory concentrations (MIC.) [25]: > 100 µg/mL; Minimum growth inhibitory concentrations (MIC.) [26]: > 100 µg/mL; Minimum growth inhibitory concentrations (MIC.) [27]: > 100 µg/mL; Minimum growth inhibitory concentrations (MIC.) [28]: > 100 µg/mL; Minimum growth inhibitory concentrations (MIC.) [29]: > 100 µg/mL; Minimum growth inhibitory concentrations (MIC.) [30]: > 100 µg/mL; Minimum growth inhibitory concentrations (MIC.) [31]: > 100 µg/mL; Minimum growth inhibitory concentrations (MIC.) [32]: > 100 µg/mL; Minimum growth inhibitory concentrations (MIC.) [33]: > 100 µg/mL; Minimum growth inhibitory concentrations (MIC.) [34]: > 100 µg/mL; Minimum growth inhibitory concentrations (MIC.) [35]: > 100 µg/mL; Minimum growth inhibitory concentrations (MIC.) [36]: > 100 µg/mL |
| CNC(=O)CC1NC(=O)c2csc(n2)-c2ccc(-c3nc(C(=O)NCCCN)cs3)nc2-c2csc(n2)-c2csc(n2)C(C(C)C)NC(=O)CNC(=O)c2csc(n2)C(C(C)C)NC(=O)c2nc1sc2C (stereo not drawn) [Compound No. 5] | 0.78 | 3.12 | 3.12 | 6.25 | 6.25 | 6.25 | 3.12 | 12.5 | 3.12 | 0.78 | 0.78 | 6.25 | 3.12 | 1.56 | > 100 | > 100 | > 100 | > 100 | > 100 | > 100 | Minimum growth inhibitory concentrations (MIC.) [21]: > 100 µg/mL; Minimum growth inhibitory concentrations (MIC.) [22]: > 100 µg/mL; Minimum growth inhibitory concentrations (MIC.) [23]: > 100 µg/mL; Minimum growth inhibitory concentrations (MIC.) [24]: > 100 µg/mL; Minimum growth inhibitory concentrations (MIC.) [25]: > 100 µg/mL; Minimum growth inhibitory concentrations (MIC.) [26]: > 100 µg/mL; Minimum growth inhibitory concentrations (MIC.) [27]: > 100 µg/mL; Minimum growth inhibitory concentrations (MIC.) [28]: > 100 µg/mL; Minimum growth inhibitory concentrations (MIC.) [29]: > 100 µg/mL; Minimum growth inhibitory concentrations (MIC.) [30]: > 100 µg/mL; Minimum growth inhibitory concentrations (MIC.) [31]: > 100 µg/mL; Minimum growth inhibitory concentrations (MIC.) [32]: > 100 µg/mL; Minimum growth inhibitory concentrations (MIC.) [33]: > 100 µg/mL; Minimum growth inhibitory concentrations (MIC.) [34]: > 100 µg/mL; Minimum growth inhibitory concentrations (MIC.) [35]: > 100 µg/mL; Minimum growth inhibitory concentrations (MIC.) [36]: > 100 µg/mL |
